Read-outs that look alike come from different tables or passages of the source.
Tests used:
[1] = tested on: HCV replicon cells Huh 9B; assay type: cell-based; settings: Huh 9B replicon cells, 72 h, methylene blue, total cell area reduced by 50%
Protocol: (§1) HCV replicon cells Huh 9B (ReBlikon), containing the firefly luciferase-ubiquitin-neomycin phosphotransferase fusion protein and EMCV-IRES driven HCV polyprotein with cell culture adaptive mutations.
(§2) Replicon cells were trypsinised and counted. Cells were diluted to 100,000 cells/ml and 100 μl used to seed one opaque white 96-well plate (for the replicon assay) and one flat-bottomed clear plate (for the tox assay) for every five compounds to be tested for IC50. Wells G12 and H12 were left empty in the clear plate as the blank. Plates were then incubated at 37° C./5% CO2 for 24 h.
(§3) On the following day compound dilutions were prepared in medium at twice their desired final concentration in a clear round bottomed plate. All dilutions have a final DMSO concentration of 1%.
(§4) Controls and compounds were transferred from the dilution plates to the assay plates (containing the cells) at 100 μl/well in duplicate wells.
(§5) Exception: no compound was added to wells A1 and A2 of either plate and 100 μl of 1% DMSO was added to these instead. Plates were then incubated at 37° C./5% CO2 for 72 h.
The clear plate was stained with 100 μA 0.5% methylene blue in 50% ethanol at room temperature for 1 h, followed by solvation of the absorbed methylene blue in 100 μl per well of 1% lauroylsarcosine. Absorbance of the plate was measured on a microplate spectrophotometer (Molecular Devices) and the absorbance for each concentration of compound expressed as a proportion of the relative DMSO control. The TD50, the is concentration of drug required to reduce the total cell area by 50% relative to the DMSO controls, was calculated by plotting the absorbance at 620 nm after background substraction against drug concentration.

[2] = tested on: HCV genotype 1a replicon cells Htat2ANeo; assay: 1a Replicon Assay (cell-based anti-NS5a ELISA); settings: Hepatitis C virus, 72 h
Protocol: HCV genotype la replicon cells Htat2ANeo (University of Texas), containing neomycin phosphotransferase fusion protein and EMCV-IRES driven HCV polyprotein with cell culture adaptive mutations, and control cells, Et2AN.
Cells were cultured at 37° C./5% CO2 and split twice a week. G418 at 0.5 mg/ml and Blastocidin at 2 mg/ml were added to the culture medium but not the assay medium.
The culture medium consisted of DMEM with […] glucose and Glutamax (Gibco 61965-026) supplemented with 1× non-essential amino acids (Invitrogen 11140-035), 0.5 mg/ml G418 (Invitrogen 10131-027), 2 mg/ml Blastocidin (PAA) and 10% is Australian foetal calf serum (Invitrogen 10099-141).
Replicon and control cells were trypsinised and counted. Replicon cells were diluted to 90,000 cells/ml and 100 μl of this used to seed columns 2-4, […] and 10-12 of a black, clear bottom 96-well plate for every three compounds to be tested for IC50. Control cells were diluted to 60,000 cells/ml and 100 μl of this used to seed columns 1, 5 and 9 of the plate. Well H1 was left empty as the blank. Plates were then incubated at 37° C./5% CO2 for 24 h.
On the following day compound dilutions were prepared in medium at twice their desired final concentration in a clear round bottomed plate.
Controls and compounds were transferred from the dilution plate to the assay plates (containing the cells) at 100 μl/well in quadruplicate wells, one well containing control cells and 3 wells containing replicon cells.
Exception: no compound was added to row H of the plate and 100 μl of 1% DMSO was added to these instead. Plates were then incubated at 37° C. with 5% CO2 for 72 h. At the end of the incubation time, any reduction in cell viability was assayed and a cell-based enzyme linked immunosorbent assay (ELISA) was performed. The media/compound was removed from all wells and replaced with 100 μl/well serum-free media and 20 μl/well Cell Titre Blue (Promega G8081). Following incubation at 37° C./5% CO2 for 2 h plates were read on a microplate fluorometer (Molecular Devices) using an excitation of 570 nm and an emission of 590 nm The TD50, the concentration of drug required to reduce 50% of Cell Titre Blue relative to the DMSO controls, was calculated by plotting the fluorescence at 590 nm after substraction of background against drug concentration.
The media/Cell Titre Blue was removed and plates washed in PBS and gently tapped dry before addition of 50 μL per well of 75% acetone/25% methanol mixture for 3 minutes. The fixative was then discarded and wells were washed with PBS before addition of 100 μl/well of blocking solution (2% non-fat dry milk and 0.05% Tween-20 in 0.85% NaCl). Plates were then incubated at 37° C. in a shaking incubator for 60 min. Blocking solution was discarded and 50 μl of mouse anti-NS5a antibody (Virostat 1877) at 1:100 dilution in blocking buffer was added to all wells. Plates were incubated at 37° C. in a shaking incubator for 90 min Antibody was then discarded and plates were washed 4 times by immersion in 0.85% NaCl/0.05% Tween-20. After washing plates were tapped dry gently and 50 μl of secondary antibody (Dako P0260 Rabbit anti-mouse horseradish peroxidase) at 1:1000 dilution in blocking buffer was added to the wells. Plates were incubated at 37° C. in a shaking incubator for 60 min. Antibody was discarded and plates were washed 6 times by immersion in 0.85% NaCl/0.05% Tween-20 and once in PBS. Finally, 50 μl of substrate (SigmaFast ortho-phenylene diamine dihydrochloride (OPD)) was added per well and the colorimetric reaction was allowed to proceed in the dark for 5 to 15 minutes depending on the strength or the signal. The reaction was stopped by addition of 25 μl/well of 20% sulphuric acid. Plates were read on the SpectraMax microplate reader at 490 nm fixed wavelength. […]

[3] = tested on: HCV replicon cells Huh 9B (genotype 1b); assay: 1b Replicon Assay (luciferase readout); assay type: cell-based; settings: Hepatitis C virus, Huh 9B replicon cells, 72 h, luciferase activity
Protocol: as §1
Cells were cultured at 37° C./5% CO2 and split twice a week. G418 at 0.5 mg/ml was added to the culture medium but not the assay medium.
The culture medium consisted of DMEM with […] glucose and Glutamax (Gibco 61965-026) supplemented with 1× non-essential amino acids (Invitrogen 11140-035), 0.5 mg/ml G418 (Invitrogen 10131-027) and 10% Australian foetal calf serum (Invitrogen 10099-141).
as §2, §3, §4, §5
At the end of the incubation time, the cells in the white plate were washed in PBS (100 μL per well) and dried by tapping before addition of 204 per well of lysis buffer (25 mM tris-phosphate, 8 mM MgCl2, 1 mM DTT, 1% Triton X-100, 15% glycerol; pH to 7.8 using KH2PO4 prior to Triton X-100 and glycerol addition). Aliquots of substrate (23.5 mM beetle luciferin (Promega E1603), 26 mM ATP (Sigma O-2060) in […] Tris buffer pH 7.8) were stored at −80° C. Prior to use, required amount of luciferin was thawed and diluted 1:50 in luciferase assay buffer (20 mM Tricine (Sigma T-0377), 1.07 mM magnesium carbonate hydroxide (Sigma M-5671), 0.1 mM EDTA (Sigma E-5134), 2.67 mM MgSO4(BDH 101514Y), 33.3 mM dithiothreitol (Sigma 150460) pH 7.8).
After 5-60 min incubation in lysis buffer at room temperature, a plate was inserted into the luminometer and 100 μl luciferase assay reagent was added by the injector of the luminometer. The signal was measured using a 1 second delay followed by a 4 second measurement programme. The IC50, the concentration of the drug required for reducing the replicon level by 50% in relation to the untreated cell control value, was calculated from the plot of the percentage reduction of the luciferase activity vs. drug concentration.

[4] = read-out: pIC50 1a Replicon (converted)
[5] = read-out: pIC50 1b Replicon (converted)

Compound	HCV TD50 Replicon [1] [µM]	IC50 ([2]; read-out: HCV IC50 Elisa 1a) [nM]	IC50 [2, 4] [nM]	IC50 ([3]; read-out: HCV IC50 1b Replicon) [nM]	IC50 [3, 5] [nM]
CC(C)(C)OC(=O)N[C@H](C(=O)N1CCC[C@H]1c1ncc(-c2ccc(-c3ccc(C(=O)Nc4ccc(CN5CCS(=O)(=O)CC5)cc4)cc3)cc2)[nH]1)c1ccccc1 [Example 1, Tert-butyl N-[(1S)-2-[(2S)-2-[5-[4-[4-[[4-[(1,1-dioxo-1,4-thiazinan-4-yl)methyl]phenyl]carbamoyl]phenyl]phenyl]-1H-imidazol-2-yl]pyrrolidin-1-yl]-2-oxo-1-phenyl-ethyl]carbamate]	>25	41.4	41.7	0.01	0.0138
COC(=O)N[C@@H](C)C(=O)N1CCC[C@H]1c1ncc(-c2ccc(-c3ccc(C(=O)Nc4ccc(CN5CCS(=O)(=O)CC5)cc4)cc3)cc2)[nH]1 [Example 4, Methyl N-[(1S)-2-[(2S)-2-[5-[4-[4-[[4-[(1,1-dioxo-1,4-thiazinan-4-yl)methyl]phenyl]carbamoyl]phenyl]phenyl]-1H-imidazol-2-yl]pyrrolidin-1-yl]-1-methyl-2-oxoethyl]carbamate]	22.44	25.9	25.7	1.18	1.17
COC(=O)N[C@@H](CO)C(=O)N1CCC[C@H]1c1ncc(-c2ccc(-c3ccc(C(=O)Nc4ccc(CN5CCS(=O)(=O)CC5)cc4)cc3)cc2)[nH]1 [Example 11, Methyl N-[(1S)-2-[(2S)-2-[5-[4-[4-[[4-[(1,1-dioxo-1,4-thiazinan-4-yl)methyl]phenyl]carbamoyl]phenyl]phenyl]-1H-imidazol-2-yl]pyrrolidin-1-yl]-1-(hydroxymethyl)-2-oxo-ethyl]carbamate]	>21	19	19.1	1.13	1.12
COC(=O)N[C@@H](C(=O)N1CCC[C@H]1c1ncc(-c2ccc(-c3ccc(C(=O)Nc4ccc(CN5CCS(=O)(=O)CC5)cc4)cc3)cc2)[nH]1)[C@H](C)O [Example 18, Methyl N-[(1R,2S)-1-[(2S)-2-[5-[4-[4-[[4-[(1,1-dioxo-1,4-thiazinan-4-yl)methyl]phenyl]carbamoyl]phenyl]phenyl]-1H-imidazol-2-yl]pyrrolidine-1-carbonyl]-2-hydroxy-propyl]carbamate]	>25	–	–	126	126
COC(=O)N[C@H](CO)C(=O)N1CCC[C@H]1c1ncc(-c2ccc(-c3ccc(C(=O)Nc4ccc(CN5CCS(=O)(=O)CC5)cc4)cc3)cc2)[nH]1 [Example 19, Methyl N-[(1R)-2-[(2S)-2-[5-[4-[4-[[4-[(1,1-dioxo-1,4-thiazinan-4-yl)methyl]phenyl]carbamoyl]phenyl]phenyl]-1H-imidazol-2-yl]pyrrolidin-1-yl]-1-(hydroxymethyl)-2-oxo-ethyl]carbamate]	21.4	–	–	43.2	43.7
COC(=O)N[C@@H](C(=O)N1CCC[C@@H]1c1ncc(-c2ccc(-c3ccc(C(=O)Nc4ccc(CN5CCS(=O)(=O)CC5)cc4)cc3)cc2)[nH]1)C(C)C [Example 27, methyl N-[(1R)-1-[(2R)-2-[5-[4-[4-[[4-[(1,1-dioxo-1,4-thiazinan-4-yl)methyl]phenyl]carbamoyl]phenyl]phenyl]-1H-imidazol-2-yl]pyrrolidine-1-carbonyl]-2-methyl-propyl]carbamate]	>25	–	–	15.3	15.1
COC(=O)N[C@H](C(=O)N1CCC[C@H]1c1ncc(-c2ccc(-c3cccc(C(=O)Nc4ccc(CN5CCS(=O)(=O)CC5)cc4)c3)cc2)[nH]1)C(C)C [Example 28, Methyl N-[(1S)-1-[(2S)-2-[5-[4-[3-[[4-[(1,1-dioxo-1,4-thiazinan-4-yl)methyl]phenyl]carbamoyl]phenyl]phenyl]-1H-imidazol-2-yl]pyrrolidine-1-carbonyl]-2-methyl-propyl]carbamate]	>25	2080	2090	7.32	7.24
COC(=O)N[C@@H](C)C(=O)N1CCC[C@H]1c1ncc(-c2ccc(-c3cccc(C(=O)Nc4ccc(CN5CCS(=O)(=O)CC5)cc4)c3)cc2)[nH]1 [Example 29, Methyl N-[(1S)-2-[(2S)-2-[5-[4-[3-[[4-[(1,1-dioxo-1,4-thiazinan-4-yl)methyl]phenyl]carbamoyl]phenyl]phenyl]-1H-imidazol-2-yl]pyrrolidin-1-yl]-1-methyl-2-oxo-ethyl]carbamate]	>25	7620	7590	33.4	33.1
CN(C)[C@@H](C(=O)N1CCCC[C@H]1c1ncc(-c2ccc(-c3ccc(C(=O)Nc4ccc(CN5CCS(=O)(=O)CC5)cc4)cc3)cc2)[nH]1)c1ccccc1 [Example 53, 4-[4-[2-[(2S)-1-[(2R)-2-(dimethylamino)-2-phenyl-acetyl]-2-piperidyl]-1H-imidazol-5-yl]phenyl]-N-[4-[(1,1-dioxo-1,4-thiazinan-4-yl)methyl]phenyl]benzamide]	–	324	324	0.82	0.813
